Where “and” joins values, the source holds several entries; their conditions need not be identical. Equal values may be shown once. No end group written: not given here.

Experiment [1] deals with T1, human CRHR2 (Homo sapiens, UniProt Q13324).
T1 construct: expressed in transfected cells
T1 sequence (Q13324 1-411): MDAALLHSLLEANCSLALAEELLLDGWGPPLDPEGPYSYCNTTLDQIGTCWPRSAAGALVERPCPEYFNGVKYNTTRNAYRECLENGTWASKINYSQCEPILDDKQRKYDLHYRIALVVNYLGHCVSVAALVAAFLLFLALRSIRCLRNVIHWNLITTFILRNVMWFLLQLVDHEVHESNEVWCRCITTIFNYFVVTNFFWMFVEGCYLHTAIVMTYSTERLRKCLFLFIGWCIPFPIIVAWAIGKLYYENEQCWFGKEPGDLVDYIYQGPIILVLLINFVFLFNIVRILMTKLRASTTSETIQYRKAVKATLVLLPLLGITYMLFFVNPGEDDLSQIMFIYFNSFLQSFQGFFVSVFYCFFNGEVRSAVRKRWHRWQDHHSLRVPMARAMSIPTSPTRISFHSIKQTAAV
The experiment can be described thus: cAMP assay in h-CRHR2 transfected SK-N-MC cells. The experiment is classed as cell-based. To be noted: for Experimental nH / nH: Hill slope; for Experimental αmax: maximal asymptote. The method in brief:
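SK-N-MC cells stably expressing human CRHR2 were stimulated with peptides (1 pM-10 μM) for 60 min at 37 °C with 10 μM IBMX, then lysed in 0.5 M HCl. cAMP was quantified by competitive [125I]-cAMP antibody flash-plate assay. Hill-equation fits gave A50/pA50; Log DR was taken relative to h-SCP control in the same batch.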
On the technique in general: cAMP levels reflect the balance of adenylyl cyclase and phosphodiesterase activity.

The target in experiment [2] is T1, human CRHR2. The experiment can be described thus: Radioligand binding, membranes of SK-N-MC cells transfected with human CRHR2, [125I]-anti-sauvagine-30. The note with it: for CRHR2 nH: Table 15, slope of competition curve. As to the method:
The binding profile of h-SCP (SEQ ID NO:1) at CRHR2 was determined in radioligand binding studies in a membrane preparation of SK-N-MC cells stably transfected with human CRHR2 using [^125I]-anti-sauvagine-30 as the radiolabel. […] The solution was then homogenized with a Polytron tissue grinder at a setting of 10 and 7×3 s (Brinkmann Instruments, Westbury, N.Y.). The homogenate was centrifuged at 4° Celsius at 800×g for 5 min with the pellet being discarded. The supernatant was re-centrifuged at 26,892×g for 25 min at 4° Celsius with the final pellet being re-suspended in assay buffer. All binding assays were conducted in 96-well Multiscreen GF/B filter plates (Millipore, Billericay, Mass., U.S.A.) that were pre-soaked in assay buffer with 0.3% PEI for 1 hour. […] The bound radioactivity was separated by filtration using a Multiscreen Resist manifold (Millipore Corp., Billerica, Mass., U.S.A). The filters were washed three times with ice-cold PBS at pH 7.5 and radioactivity retained on the filters was quantified by its liquid scintillation measured by a TopCount counter (Packard BioScience, Boston, Mass., U.S.A). All experiments were performed in triplicate. Data from individual competition curves were expressed as the percentage of specific [^125I]-anti-sauvagine-30 or)[^125I]-([…])-sauvagine binding (B) within each experiment.

Setting [3] is: CRHR2, Table 11, listed as h-SRP.
Where [4] appears, read: CRHR2, Table 11, listed as h-SCP.

Turning to `CC[C@H](C)[C@H](NC(=O)[C@H](CO)NC(=O)[C@H](CC(C)C)NC(=O)[C@@H]1CCCN1C(=O)[C@@H]1CCCN1C(=O)[C@H](CC(=O)O)NC(=O)[C@@H](N)CC(=O)O)C(=O)N[C@@H](CC(=O)O)C(=O)N[C@@H](CC(C)C)C(=O)N[C@H](C(=O)N[C@@H](Cc1ccccc1)C(=O)N[C@@H](Cc1c[nH]cn1)C(=O)N[C@@H](CC(C)C)C(=O)N[C@@H](CC(C)C)C(=O)N[C@@H](CCCNC(=N)N)C(=O)N[C@H](C(=O)N[C@@H](CC(C)C)C(=O)N[C@@H](CC(C)C)C(=O)N[C@@H](CCC(=O)O)C(=O)N[C@@H](CC(C)C)C(=O)N[C@@H](C)C(=O)N[C@@H](CCCNC(=N)N)C(=O)N[C@H](C(=O)N[C@@H](CCC(N)=O)C(=O)N[C@@H](CO)C(=O)N[C@@H](CCC(N)=O)C(=O)N[C@@H](CCCNC(=N)N)C(=O)N[C@@H](CCC(=O)O)C(=O)N[C@@H](CCCNC(=N)N)C(=O)N[C@@H](C)C(=O)N[C@@H](CCC(=O)O)C(=O)N[C@@H](CCC(N)=O)C(=O)N[C@@H](CC(N)=O)C(=O)N[C@@H](CCCNC(=N)N)C(=O)N[C@H](C(=O)N[C@H](C(=O)N[C@@H](Cc1ccccc1)C(=O)N[C@@H](CC(=O)O)C(=O)N[C@@H](CO)C(=O)N[C@H](C(N)=O)C(C)C)[C@@H](C)CC)[C@@H](C)CC)[C@@H](C)O)[C@@H](C)O)[C@@H](C)O` [SEQ ID NO: 114, DDPPLSIDLTFHLLRTLLELARTQSQRERAEQNRIIFDSV-NH2], in experiment [1] (CRHR2, Table 11), the “Experimental nH” value worked out at 1.07 and the “Experimental αmax” value is 110.5. The “CRHR2 nH” value in experiment [2] was 1.19 ± 0.14.

Turning to “HPGSRIVLSLDVPIGLLQILLEQARARAAREQATTNARILARV-NH2 [SEQ ID NO: 117, HPGSRIVLSLDVPIGLLQILLEQARAPAAREQATTNARILARV-NH2, reference compound]”, in experiment [1] (setting [3]), the “Experimental nH” value is 1.08 and 1.06 and 0.99; the “Experimental αmax” value was 113.5 and 108.7 and 98.56. In experiment [2], the “CRHR2 nH” value is 1.26 ± 0.14.

Consider “TKFTLSLDVPTNIMNLLFNIAKAKNLRAQAAANAHLMAQI-NH2 [SEQ ID NO: 1, TKFTLSLDVPTNIMNLLFNIAKAKNLRAQAAANAHLMAQI-NH2, reference compound]”, for which the “Experimental pA50” value in experiment [1] (CRHR2, Table 11, 1 hr at 37° Celsius, listed as h-SCP) is given as 9.41. Also, in experiment [1] (setting [4]), the “Experimental nH” value was 0.99 and 1.04 and 1.39 and 1.55. Also, the “Experimental αmax” value in experiment [1] (setting [4]) is 99.31 and 97.53 and 116.1 and 98.2. The values for the nH in experiment [1] (Table 12) and in experiment [1] (Table 14) were 1.18 and 1.26, respectively. In addition, the pA50 in experiment [1] (Table 12, amidation and N-terminal deletions, 3-5 replicate experiments) is reported as 9.41; in experiment [1] (Table 14), 9.40; in experiment [1] (text b201-b202, N-terminal deletions, parent in one batch) it was 9.41±0.03. For the same molecule, the EC50 in experiment [1] (text b184, read-out: concentration required for 50% maximum effect (A50)) was found to be 0.4 nM. The “CRHR2 nH” value in experiment [2] was found to be 1.00 ± 0.04. Also, in experiment [2] ([125I]-anti-sauvagine-30 competition), the “competition curve / affinity states” value is on record as “biphasic”.

Values taken from patent US10040838B2, “CRHR2 peptide agonists and uses thereof” (JANSSEN PHARMACEUTICA NV, priority 2008, dated 2018).
